The values that follow come from ChEMBL document CHEMBL5291721, “A preclinical secondary pharmacology resource illuminates target-adverse drug reaction associations of marketed drugs” (Nat Commun, 2023).

Experiment [1] has as its target Gamma-aminobutyric acid receptor subunit alpha-1/alpha-2/beta-2/gamma-2 (Homo sapiens, UniProt P14867+P18507+P47869+P47870). The format is functional, cell-based.
Experiment [2] deals with 5-hydroxytryptamine receptor 2A (Homo sapiens, UniProt P28223). The class given is functional, cell-based.
Chain of 5-hydroxytryptamine receptor 2A (P28223 whole entry): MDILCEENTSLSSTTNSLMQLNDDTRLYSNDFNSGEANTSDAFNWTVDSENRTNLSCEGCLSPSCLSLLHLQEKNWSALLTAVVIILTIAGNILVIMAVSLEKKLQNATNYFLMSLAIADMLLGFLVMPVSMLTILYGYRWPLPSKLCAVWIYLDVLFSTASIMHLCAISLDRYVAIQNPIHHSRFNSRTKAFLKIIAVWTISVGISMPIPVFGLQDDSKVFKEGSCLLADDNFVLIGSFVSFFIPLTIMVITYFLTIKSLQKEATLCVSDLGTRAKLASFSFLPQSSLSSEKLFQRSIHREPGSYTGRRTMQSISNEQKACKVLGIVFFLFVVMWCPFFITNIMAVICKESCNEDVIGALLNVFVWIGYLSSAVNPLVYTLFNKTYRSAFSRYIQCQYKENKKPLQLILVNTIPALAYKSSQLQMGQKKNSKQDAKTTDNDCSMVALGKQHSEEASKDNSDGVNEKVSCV
Experiment [3] concerns the target T1, Peroxisome proliferator-activated receptor gamma (Homo sapiens, UniProt P37231).
T1 sequence (P37231 whole entry): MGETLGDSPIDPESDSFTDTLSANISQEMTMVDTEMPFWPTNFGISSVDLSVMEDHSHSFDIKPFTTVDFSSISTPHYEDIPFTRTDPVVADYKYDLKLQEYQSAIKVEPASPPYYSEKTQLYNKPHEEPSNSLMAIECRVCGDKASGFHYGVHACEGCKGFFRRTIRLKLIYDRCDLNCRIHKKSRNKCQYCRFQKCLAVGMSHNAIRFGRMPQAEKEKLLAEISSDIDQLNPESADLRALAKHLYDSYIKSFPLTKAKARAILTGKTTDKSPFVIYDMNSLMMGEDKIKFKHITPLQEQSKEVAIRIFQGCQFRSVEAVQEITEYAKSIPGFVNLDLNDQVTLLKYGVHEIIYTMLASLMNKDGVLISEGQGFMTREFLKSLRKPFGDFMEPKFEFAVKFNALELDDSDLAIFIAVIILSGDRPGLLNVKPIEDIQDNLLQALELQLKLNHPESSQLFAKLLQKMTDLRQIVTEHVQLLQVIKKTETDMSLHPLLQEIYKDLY
The class given is functional.

For experiment [4], the target named is T2, Alpha-1A adrenergic receptor (Homo sapiens, UniProt P35348).
T2 sequence (P35348 whole entry): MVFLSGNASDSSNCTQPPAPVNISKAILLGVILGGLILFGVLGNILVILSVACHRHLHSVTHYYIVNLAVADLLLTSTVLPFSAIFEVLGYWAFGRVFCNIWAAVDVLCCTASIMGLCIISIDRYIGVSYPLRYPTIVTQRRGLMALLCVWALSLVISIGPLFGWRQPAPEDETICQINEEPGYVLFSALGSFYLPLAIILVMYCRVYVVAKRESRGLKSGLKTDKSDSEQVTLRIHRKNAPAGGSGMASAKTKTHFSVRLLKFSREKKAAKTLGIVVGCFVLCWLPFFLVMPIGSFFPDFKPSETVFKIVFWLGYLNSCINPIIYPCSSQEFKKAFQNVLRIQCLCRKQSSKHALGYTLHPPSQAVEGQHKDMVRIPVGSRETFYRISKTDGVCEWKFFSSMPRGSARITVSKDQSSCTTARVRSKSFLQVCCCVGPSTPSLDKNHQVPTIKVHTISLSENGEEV

Experiment [5] has as its target T3, B1 bradykinin receptor (Homo sapiens, UniProt P46663).
T3 sequence (P46663 whole entry): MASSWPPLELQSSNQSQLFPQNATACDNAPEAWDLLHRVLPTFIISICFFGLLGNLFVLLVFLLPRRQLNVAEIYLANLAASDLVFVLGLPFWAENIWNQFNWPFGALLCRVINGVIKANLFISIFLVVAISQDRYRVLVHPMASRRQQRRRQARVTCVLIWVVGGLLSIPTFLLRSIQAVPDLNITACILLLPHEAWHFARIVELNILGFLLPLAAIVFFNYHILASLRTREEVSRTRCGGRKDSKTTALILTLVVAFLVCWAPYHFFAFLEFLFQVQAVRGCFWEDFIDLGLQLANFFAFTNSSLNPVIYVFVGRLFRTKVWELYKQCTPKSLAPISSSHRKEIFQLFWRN

For experiment [6], the target named is Cannabinoid receptor 1 (Homo sapiens, UniProt P21554).
Chain of Cannabinoid receptor 1 (P21554 whole entry): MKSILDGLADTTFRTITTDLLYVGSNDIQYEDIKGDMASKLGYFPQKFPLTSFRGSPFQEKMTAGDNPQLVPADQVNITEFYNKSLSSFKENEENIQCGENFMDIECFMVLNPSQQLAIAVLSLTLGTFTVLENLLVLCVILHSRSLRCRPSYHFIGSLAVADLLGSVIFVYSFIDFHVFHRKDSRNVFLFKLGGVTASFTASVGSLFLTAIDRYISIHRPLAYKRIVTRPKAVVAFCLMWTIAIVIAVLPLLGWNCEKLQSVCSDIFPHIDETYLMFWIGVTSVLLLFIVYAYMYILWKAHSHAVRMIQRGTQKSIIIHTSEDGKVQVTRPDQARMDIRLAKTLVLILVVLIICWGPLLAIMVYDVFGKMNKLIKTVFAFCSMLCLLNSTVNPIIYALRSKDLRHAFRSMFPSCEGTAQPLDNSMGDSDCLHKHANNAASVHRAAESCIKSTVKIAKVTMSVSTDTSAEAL
Experiment [7] has as its target Mu-type opioid receptor (Homo sapiens, UniProt P35372). Description: biochemical. The format is functional.
Experiment [8] addresses Sodium channel protein type 5 subunit alpha (Homo sapiens, UniProt Q14524). The format is functional, cell-based.
Experiment [9] deals with T4, Androgen receptor (Homo sapiens, UniProt P10275).
T4 sequence (P10275 whole entry): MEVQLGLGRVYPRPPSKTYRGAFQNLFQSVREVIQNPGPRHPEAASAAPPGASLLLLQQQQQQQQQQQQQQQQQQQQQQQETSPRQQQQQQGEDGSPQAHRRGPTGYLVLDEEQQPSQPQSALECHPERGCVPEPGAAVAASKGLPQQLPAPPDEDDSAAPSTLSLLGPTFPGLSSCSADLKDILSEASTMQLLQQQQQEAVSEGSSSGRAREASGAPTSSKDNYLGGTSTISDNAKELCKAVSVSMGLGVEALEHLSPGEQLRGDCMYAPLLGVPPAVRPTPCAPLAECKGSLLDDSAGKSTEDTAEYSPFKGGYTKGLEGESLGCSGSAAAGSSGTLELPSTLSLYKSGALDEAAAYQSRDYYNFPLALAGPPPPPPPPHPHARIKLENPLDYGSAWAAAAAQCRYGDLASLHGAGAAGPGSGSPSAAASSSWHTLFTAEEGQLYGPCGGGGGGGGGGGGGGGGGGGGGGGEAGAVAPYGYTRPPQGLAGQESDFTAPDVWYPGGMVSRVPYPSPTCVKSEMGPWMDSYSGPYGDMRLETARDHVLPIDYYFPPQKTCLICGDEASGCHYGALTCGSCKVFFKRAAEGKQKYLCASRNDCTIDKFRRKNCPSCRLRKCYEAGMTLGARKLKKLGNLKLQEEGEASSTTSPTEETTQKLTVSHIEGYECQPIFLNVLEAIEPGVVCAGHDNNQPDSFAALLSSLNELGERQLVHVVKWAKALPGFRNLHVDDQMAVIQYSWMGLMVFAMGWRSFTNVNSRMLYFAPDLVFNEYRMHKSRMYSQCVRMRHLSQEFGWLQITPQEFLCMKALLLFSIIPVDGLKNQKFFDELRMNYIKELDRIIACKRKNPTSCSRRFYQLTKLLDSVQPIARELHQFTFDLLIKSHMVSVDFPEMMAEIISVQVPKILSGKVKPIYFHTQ

Chain of Sodium channel protein type 5 subunit alpha (Q14524 whole entry): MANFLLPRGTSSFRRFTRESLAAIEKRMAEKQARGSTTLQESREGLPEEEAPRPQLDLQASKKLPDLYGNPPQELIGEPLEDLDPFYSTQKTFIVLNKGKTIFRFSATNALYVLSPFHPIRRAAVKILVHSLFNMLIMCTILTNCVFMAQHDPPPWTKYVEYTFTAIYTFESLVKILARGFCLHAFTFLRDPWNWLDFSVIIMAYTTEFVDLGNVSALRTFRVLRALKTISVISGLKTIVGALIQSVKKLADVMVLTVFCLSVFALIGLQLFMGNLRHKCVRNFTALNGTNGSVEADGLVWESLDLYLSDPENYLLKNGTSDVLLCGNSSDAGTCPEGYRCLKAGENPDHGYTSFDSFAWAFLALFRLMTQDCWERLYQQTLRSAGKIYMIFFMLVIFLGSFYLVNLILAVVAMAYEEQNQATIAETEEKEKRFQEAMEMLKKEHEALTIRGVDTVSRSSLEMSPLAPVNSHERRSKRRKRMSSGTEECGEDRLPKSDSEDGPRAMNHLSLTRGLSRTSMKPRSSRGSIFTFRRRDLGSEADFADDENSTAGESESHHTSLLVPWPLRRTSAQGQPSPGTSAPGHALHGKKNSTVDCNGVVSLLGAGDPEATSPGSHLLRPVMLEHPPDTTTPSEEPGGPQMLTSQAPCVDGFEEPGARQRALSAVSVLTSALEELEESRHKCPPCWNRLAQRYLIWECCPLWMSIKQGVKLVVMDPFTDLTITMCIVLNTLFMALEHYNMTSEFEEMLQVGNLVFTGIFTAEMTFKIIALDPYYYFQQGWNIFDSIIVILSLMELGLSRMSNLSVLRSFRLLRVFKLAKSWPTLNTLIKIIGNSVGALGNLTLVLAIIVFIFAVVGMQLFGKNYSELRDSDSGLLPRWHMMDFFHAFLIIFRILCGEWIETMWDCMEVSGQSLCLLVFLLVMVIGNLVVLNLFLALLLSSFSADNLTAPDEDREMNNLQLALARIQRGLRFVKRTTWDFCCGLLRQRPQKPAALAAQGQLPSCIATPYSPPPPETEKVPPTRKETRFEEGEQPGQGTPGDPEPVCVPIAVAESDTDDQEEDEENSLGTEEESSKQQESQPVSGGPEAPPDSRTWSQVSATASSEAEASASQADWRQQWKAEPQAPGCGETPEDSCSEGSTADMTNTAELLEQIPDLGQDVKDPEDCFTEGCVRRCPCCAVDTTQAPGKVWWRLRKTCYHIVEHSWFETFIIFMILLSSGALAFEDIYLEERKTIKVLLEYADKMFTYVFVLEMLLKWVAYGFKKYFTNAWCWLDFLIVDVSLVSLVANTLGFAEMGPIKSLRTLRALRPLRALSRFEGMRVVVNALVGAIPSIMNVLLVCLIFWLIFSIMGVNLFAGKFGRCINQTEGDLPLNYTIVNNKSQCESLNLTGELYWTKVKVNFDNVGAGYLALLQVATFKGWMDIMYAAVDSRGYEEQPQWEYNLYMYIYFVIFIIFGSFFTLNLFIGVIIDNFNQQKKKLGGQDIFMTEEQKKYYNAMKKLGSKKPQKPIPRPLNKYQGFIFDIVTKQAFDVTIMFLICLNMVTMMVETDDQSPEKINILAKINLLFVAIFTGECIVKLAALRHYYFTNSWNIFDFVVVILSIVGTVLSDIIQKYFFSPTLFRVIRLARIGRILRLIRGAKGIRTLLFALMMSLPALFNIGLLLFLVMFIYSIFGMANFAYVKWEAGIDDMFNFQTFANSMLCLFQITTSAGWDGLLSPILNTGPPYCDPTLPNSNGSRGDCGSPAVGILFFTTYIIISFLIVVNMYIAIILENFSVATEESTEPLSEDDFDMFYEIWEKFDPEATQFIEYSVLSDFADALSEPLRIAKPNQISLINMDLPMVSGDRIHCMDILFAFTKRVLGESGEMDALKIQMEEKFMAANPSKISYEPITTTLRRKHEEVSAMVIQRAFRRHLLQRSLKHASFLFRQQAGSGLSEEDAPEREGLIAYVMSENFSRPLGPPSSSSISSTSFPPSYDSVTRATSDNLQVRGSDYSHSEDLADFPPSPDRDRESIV
Chain of Mu-type opioid receptor (P35372 whole entry): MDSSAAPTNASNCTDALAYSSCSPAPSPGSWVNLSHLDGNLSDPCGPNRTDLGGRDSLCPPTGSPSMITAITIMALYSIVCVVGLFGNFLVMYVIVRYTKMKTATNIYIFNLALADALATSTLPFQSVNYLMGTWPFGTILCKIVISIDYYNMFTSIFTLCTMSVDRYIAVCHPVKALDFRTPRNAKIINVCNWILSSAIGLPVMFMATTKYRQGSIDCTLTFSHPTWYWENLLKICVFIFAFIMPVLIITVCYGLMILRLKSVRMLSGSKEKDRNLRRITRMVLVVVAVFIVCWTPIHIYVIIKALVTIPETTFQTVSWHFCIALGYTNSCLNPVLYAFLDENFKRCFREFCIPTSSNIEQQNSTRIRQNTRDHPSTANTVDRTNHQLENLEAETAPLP

For the compound `CC(=N)N1CC[C@H](SC2=C(C(=O)O)N3C(=O)[C@H]([C@@H](C)O)[C@H]3C2)C1`, the AC50 in experiment [1] was above 2400 µM; in experiment [2], above 300 µM; in experiment [3] it was above 300 µM.

`CC1(C)S[C@@H]2[C@H](NC(=O)[C@H](N)c3ccc(O)cc3)C(=O)N2[C@H]1C(=O)O` [AMOXICILLIN]: the AC50 in experiment [4] is above 10 µM; in experiment [5], above 30 µM; in experiment [6], above 30 µM; in experiment [7], above 30 µM; in experiment [8] it was above 30 µM.

Turning to `Cc1ccc([C@@H]2O[C@H](CO)[C@@H](O)[C@H](O)[C@H]2O)cc1Cc1ccc(-c2ccc(F)cc2)s1` [CANAGLIFLOZIN ANHYDROUS], the results for the AC50 in experiment [9] and in experiment [8] were above 30 µM and above 50 µM, respectively.

Regarding `C=C(C)[C@@H]1CCC(C)=C[C@H]1c1c(O)cc(CCCCC)cc1O` [CANNABIDIOL], the values for the concentration at half-maximal activity (AC50) in experiment [2] and in experiment [8] were 4.7 µM and above 10 µM, respectively.

Take `CO/N=C(\C(=O)N[C@@H]1C(=O)N2C(C(=O)O)=C(COC(N)=O)CS[C@H]12)c1ccco1` [CEFUROXIME]: the concentration at half-maximal activity (AC50) in experiment [1], in experiment [2], in [7] and in experiment [3] was above 30 µM each time.

In the case of `COC(=O)[C@H](c1ccccc1Cl)N1CCc2sccc2C1` [CLOPIDOGREL], the AC50 was above 10 µM in experiment [4]; above 30 µM in [5]; above 30 µM in experiment [6]; above 30 µM in experiment [1]; above 30 µM in experiment [7]; above 30 µM in experiment [3].

In the case of `CNCC[C@H](Oc1cccc2ccccc12)c1cccs1` [DULOXETINE], the figures for the AC50 in experiment [6] and in experiment [8] were above 10 µM and 5.3 µM, respectively.

On to `C#Cc1cccc(Nc2ncnc3cc(OCCOC)c(OCCOC)cc23)c1` [ERLOTINIB], for which the AC50 in experiment [1] and in [3] was above 30 µM in each case.

Take `CCC(=O)O[C@@H](O[P@](=O)(CCCCc1ccccc1)CC(=O)N1C[C@H](C2CCCCC2)C[C@H]1C(=O)O)C(C)C` [FOSINOPRIL]: the AC50 in [1], in experiment [2] and in experiment [7] was above 30 µM in each case.

Take `C[C@H]1Oc2cc(cnc2N)-c2c(nn(C)c2C#N)CN(C)C(=O)c2ccc(F)cc21` [LORLATINIB]: the half-maximal activity concentration (AC50) in [1], in experiment [2], in experiment [3] and in [8] was above 30 µM throughout.

Regarding `CN(C)c1cc(CNCC(C)(C)C)c(O)c2c1C[C@H]1C[C@H]3[C@H](N(C)C)C(O)=C(C(N)=O)C(=O)[C@@]3(O)C(O)=C1C2=O` [OMADACYCLINE], the concentration at half-maximal activity (AC50) in experiment [9], in [1], in [2], in experiment [7] and in [3] was above 30 µM each time.

On to `CNC[C@H](O)c1cccc(O)c1` [PHENYLEPHRINE], for which the AC50 in [5] is above 30 µM; in [6] it was above 10 µM; in [2] it was above 30 µM; in experiment [7] it was above 30 µM; in experiment [8], above 30 µM.

Turning to `O=C1NC(=O)C(c2ccccc2)(c2ccccc2)N1` [PHENYTOIN], the AC50 in experiment [4] is above 10 µM; in experiment [5], above 30 µM; in experiment [6] it was above 10 µM; in experiment [3], above 30 µM; in experiment [8], above 50 µM.

Turning to `CC(C)C[C@H](CN)CC(=O)O` [PREGABALIN], the AC50 in experiment [5], in [6], in experiment [1], in [2], in experiment [7] and in experiment [3] was above 30 µM throughout.

Consider `CCOc1cc(CC(=O)N[C@@H](CC(C)C)c2ccccc2N2CCCCC2)ccc1C(=O)O` [REPAGLINIDE], for which the concentration at half-maximal activity (AC50) in experiment [1] was above 30 µM; in experiment [2], 9.4 µM; in [3] it was above 30 µM.

`NC(=O)c1ncn([C@@H]2O[C@H](CO)[C@@H](O)[C@H]2O)n1` [RIBAVIRIN]: the AC50 in experiment [4] was above 10 µM; in [6], above 10 µM; in experiment [8] it was above 50 µM.

Take `O=C(Nc1c(Cl)cncc1Cl)c1ccc(OC(F)F)c(OCC2CC2)c1` [ROFLUMILAST]: the AC50 in experiment [2] is above 30 µM; in [7], above 30 µM; in experiment [8] it was above 50 µM.

On to `CCCN(CCC)CCc1cccc2c1CC(=O)N2` [ROPINIROLE], for which the AC50 was above 10 µM in experiment [4]; above 30 µM in [5]; above 10 µM in experiment [6]; above 30 µM in [1]; 7.3 µM in experiment [2]; above 30 µM in experiment [7]. Besides, in [3], the concentration at half-maximal activity (AC50) is above 30 µM.

Regarding `CCCN(CCc1cccs1)[C@H]1CCc2c(O)cccc2C1` [ROTIGOTINE], the AC50 in [1] and in experiment [3] was above 30 µM throughout.

Turning to `CC(C)N(CCCCOCC(=O)NS(C)(=O)=O)c1cnc(-c2ccccc2)c(-c2ccccc2)n1` [SELEXIPAG], the half-maximal activity concentration (AC50) in experiment [4] is above 10 µM; in [2] it was 16 µM; in experiment [7], above 30 µM; in [8] it was 45 µM.

On to `CC(=O)S[C@@H]1CC2=CC(=O)CC[C@]2(C)[C@H]2CC[C@@]3(C)[C@@H](CC[C@@]34CCC(=O)O4)[C@H]12` [SPIRONOLACTONE], for which the half-maximal activity concentration (AC50) is 10.4 µM in [4]; above 30 µM in [5]; above 10 µM in [6]; above 30 µM in experiment [1]; above 30 µM in experiment [3].

`NC(=O)NS(=O)(=O)c1ccc(N)cc1` [SULFACARBAMIDE] came in with a concentration at half-maximal activity (AC50) in experiment [8] above 50 µM.

On to `CCCCCCCCNC(C)C(O)c1ccc(SC(C)C)cc1` (configuration not stated) [SULOCTIDIL], for which the AC50 in experiment [9] is above 30 µM; in experiment [8] it was 7.7 µM.

As for `CN1CCN(CCCN2c3ccccc3Sc3ccc(S(=O)(=O)N(C)C)cc32)CC1` [THIOPROPERAZINE], the AC50 is above 30 µM in experiment [1], 5.8 µM in [2] and above 30 µM in experiment [7].

The term AC50 denotes the concentration at which the activity in the assay is half-maximal. A low value points to greater potency.
